Assay [1] has as its target HCV NS3/4A protease genotype 1b (Hepatitis C virus genotype 1b, UniProt P26663). The assay can be described thus: HCV NS3/4A protease time-resolved fluorescence (TRF) assay, Ki against genotype 1b. The settings on record: IC50 [gt-1b] (nM), NS3/4A genotype 1b, enzyme 0.2 nM. In kind it is biochemical. The method, boiled down:
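Ki was converted from fitted IC50 using IC50=Ki(1+[S]/KM) and 25 nM substrate. Protease (genotype 1b 0.2 nM, A156T 0.4 nM, 3a 0.025 nM) and compound were pre-mixed 30 min in pH 7.5 HEPES/NaCl/glycerol/DTT buffer. Cleavage then proceeded 2.5 h at room temperature, detected by time-resolved europium fluorescence (340/615 nm).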

The subject of a further assay is HCV genotype 1b replicon. The assay can be described thus: HCV replicon assay, genotype 1b replicon EC50. In kind it is cell-based, Hepatitis C virus. The settings on record: Hepatitis C virus, genotype 1b replicon, read-out: EC50 [gt-1b]. The method, boiled down: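 Readout was replicon RNA copy number, by 32P-probe protection or TaqMan normalized to cellular cyclophilin A RNA, or luciferase activity for luciferase:Neo^r fusion lines. Cells were exposed to serially diluted compound for 24-48 hours without G418, then washed and lysed. EC50 derived from four-parameter fit relative to DMSO.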
For orientation: Replicon systems follow genome replication, usually without infectious particles.

Read-outs that look alike come from different tables or passages of the source.

The IC50 is the midpoint of a concentration-inhibition curve. Usually EC50 stands for the concentration that produces a half-maximal response. Compound `COc1ccc2nc(C(F)(F)F)c3c(c2c1)CC[C@]1(C[C@H]2C(=O)N[C@]4(C(=O)NS(=O)(=O)C5(C)CC5)C[C@H]4/C=C\CCCCC[C@H](NC(=O)OC4(C)CC4)C(=O)N2C1)O3` [Example 216, 1-methylcyclopropyl [(2R,6S,12Z,13aS,14aR,16aS)-9′-methoxy-14a-{[(1-methylcyclopropyl)sulfonyl]carbamoyl}-5,16-dioxo-5′-(trifluoromethyl)-1,1′,2′,5,6,7,8,9,10,11,13a,14,14a,15,16,16a-hexadecahydrospiro[cyclopropa[e]pyrrolo[1,2-a][1,4]diazacyclopentadecine-2,3′-pyrano[2,3-c]quinolin]-6-yl]carbamate] returned an IC50 in assay [1] of 0.013 nM. In addition, in the assay with HCV genotype 1b replicon, the EC50 worked out at 6.43 nM.
With `COc1ccc2nc(C(F)(F)F)c3c(c2c1)CC[C@]1(C[C@H]2C(=O)N[C@]4(C(=O)NS(=O)(=O)C5(C)CC5)C[C@H]4/C=C\CCCCC[C@H](NC(=O)OC4CCCC4)C(=O)N2C1)O3` [Example 217, cyclopentyl [(2R,6S,12Z,13aS,14aR,16aS)-9′-methoxy-14a-{[(1-methylcyclopropyl)sulfonyl]carbamoyl}-5,16-dioxo-5′-(trifluoromethyl)-1,1′,2′,5,6,7,8,9,10,11,13a,14,14a,15,16,16a-hexadecahydrospiro[cyclopropa[e]pyrrolo[1,2-a][1,4]diazacyclopentadecine-2,3′-pyrano[2,3-c]quinolin]-6-yl]carbamate], the IC50 in assay [1] stood at 0.024 nM. The EC50 in the assay on HCV genotype 1b replicon was determined as 10.3 nM.
In the case of `Cc1nc2ccc(F)cc2c2c1O[C@]1(CC2)C[C@H]2C(=O)N[C@]3(C(=O)NS(=O)(=O)C4(C)CC4)C[C@H]3/C=C\CCCCC[C@H](NC(=O)OCC(C)C)C(=O)N2C1` [Example 218, 2-methylpropyl [(2R,6S,12Z,13aS,14aR,16aS)-9′-fluoro-5′-methyl-14a-{[(1-methylcyclopropyl)sulfonyl]carbamoyl}-5,16-dioxo-1,1′,2′,5,6,7,8,9,10,11,13a,14,14a,15,16,16a-hexadecahydrospiro[cyclopropa[e]pyrrolo[1,2-a][1,4]diazacyclopentadecine-2,3′-pyrano[2,3-c]quinolin]-6-yl]carbamate], half-maximal inhibition in assay [1] (IC50) required 0.005 nM. For the same compound, the EC50 in the assay on HCV genotype 1b replicon stood at 2.15 nM.
`Cc1nc2ccc(F)cc2c2c1O[C@]1(CC2)C[C@H]2C(=O)N[C@]3(C(=O)NS(=O)(=O)C4(C)CC4)C[C@H]3/C=C\CCCCC[C@H](NC(=O)OC3CCCC3)C(=O)N2C1` [Example 219, cyclopentyl [(2R,6S,12Z,13aS,14aR,16aS)-9′-fluoro-5′-methyl-14a-{[(1-methylcyclopropyl)sulfonyl]carbamoyl}-5,16-dioxo-1,1′,2′,5,6,7,8,9,10,11,13a,14,14a,15,16,16a-hexadecahydrospiro[cyclopropa[e]pyrrolo[1,2-a][1,4]diazacyclopentadecine-2,3′-pyrano[2,3-c]quinolin]-6-yl]carbamate]: in assay [1], the IC50 was found to be 0.004 nM. Further, the EC50 with HCV genotype 1b replicon amounted to 1.2 nM.
Taken in the same sequence, the figures for `Cc1nc2ccc(Cl)cc2c2c1O[C@]1(CC2)C[C@H]2C(=O)N[C@]3(C(=O)NS(=O)(=O)C4(C)CC4)C[C@H]3/C=C\CCCCC[C@H](NC(=O)OCC3CCC3)C(=O)N2C1` [Example 221, cyclobutylmethyl [(2R,6S,12Z,13aS,14aR,16aS)-9′-chloro-5′-methyl-14a-{[(1-methylcyclopropyl)sulfonyl]carbamoyl}-5,16-dioxo-1,1′,2′,5,6,7,8,9,10,11,13a,14,14a,15,16,16a-hexadecahydrospiro[cyclopropa[e]pyrrolo[1,2-a][1,4]diazacyclopentadecine-2,3′-pyrano[2,3-c]quinolin]-6-yl]carbamate] were 0.008 nM and 11.6 nM.
Turning to `Cc1nc2ccc(Cl)cc2c2c1O[C@]1(CC2)C[C@H]2C(=O)N[C@]3(C(=O)NS(=O)(=O)C4(C)CC4)C[C@H]3/C=C\CCCCC[C@H](NC(=O)OCC3CC3)C(=O)N2C1` [Example 222, cyclopropylmethyl [(2R,6S,12Z,13aS,14aR,16aS)-9′-chloro-5′-methyl-14a-{[(1-methylcyclopropyl)sulfonyl]carbamoyl}-5,16-dioxo-1,1′,2′,5,6,7,8,9,10,11,13a,14,14a,15,16,16a-hexadecahydrospiro[cyclopropa[e]pyrrolo[1,2-a][1,4]diazacyclopentadecine-2,3′-pyrano[2,3-c]quinolin]-6-yl]carbamate], the IC50 in assay [1] (K+ salt) stood at 0.009 nM. Also, the EC50 in the assay with HCV genotype 1b replicon (K+ salt) turned out to be 4.78 nM.
`Cc1nc2cc(F)c(F)cc2c2c1O[C@]1(CC2)C[C@H]2C(=O)N[C@]3(C(=O)NS(=O)(=O)C4(C)CC4)C[C@H]3/C=C\CCCCC[C@H](NC(=O)OCC3(C)CC3)C(=O)N2C1` [Example 223, (1-methylcyclopropyl)methyl [(2R,6S,12Z,13aS,14aR,16aS)-8′,9′-difluoro-5′-methyl-14a-{[(1-methylcyclopropyl)sulfonyl]carbamoyl}-5,16-dioxo-1,1′,2′,5,6,7,8,9,10,11,13a,14,14a,15,16,16a-hexadecahydrospiro[cyclopropa[e]pyrrolo[1,2-a][1,4]diazacyclopentadecine-2,3′-pyrano[2,3-c]quinolin]-6-yl]carbamate] registered a half-maximal inhibitory concentration (IC50) in assay [1] of 0.013 nM. Moreover, the EC50 in the assay with HCV genotype 1b replicon was 11.1 nM.
In turn, `Cc1nc2cc(F)c(F)cc2c2c1O[C@]1(CC2)C[C@H]2C(=O)N[C@]3(C(=O)NS(=O)(=O)C4(C)CC4)C[C@H]3/C=C\CCCCC[C@H](NC(=O)OCC3CC3)C(=O)N2C1` [Example 224, cyclopropylmethyl [(2R,6S,12Z,13aS,14aR,16aS)-8′,9′-difluoro-5′-methyl-14a-{[(1-methylcyclopropyl)sulfonyl]carbamoyl}-5,16-dioxo-1,1′,2′,5,6,7,8,9,10,11,13a,14,14a,15,16,16a-hexadecahydrospiro[cyclopropa[e]pyrrolo[1,2-a][1,4]diazacyclopentadecine-2,3′-pyrano[2,3-c]quinolin]-6-yl]carbamate] returned an IC50 in assay [1] of 0.019 nM. Also, the EC50 in the assay with HCV genotype 1b replicon amounted to 6.73 nM.
The compound `Cc1nc2cc(F)c(F)cc2c2c1O[C@]1(CC2)C[C@H]2C(=O)N[C@]3(C(=O)NS(=O)(=O)C4(C)CC4)C[C@H]3/C=C\CCCCC[C@H](NC(=O)OCC3CCC3)C(=O)N2C1` [Example 225, cyclobutylmethyl [(2R,6S,12Z,13aS,14aR,16aS)-8′,9′-difluoro-5′-methyl-14a-{[(1-methylcyclopropyl)sulfonyl]carbamoyl}-5,16-dioxo-1,1′,2′,5,6,7,8,9,10,11,13a,14,14a,15,16,16a-hexadecahydrospiro[cyclopropa[e]pyrrolo[1,2-a][1,4]diazacyclopentadecine-2,3′-pyrano[2,3-c]quinolin]-6-yl]carbamate] showed an IC50 in assay [1] of 0.031 nM. Also, the half-maximal effective concentration (EC50) with HCV genotype 1b replicon amounted to 12.5 nM.
Take `Cc1nc2ccc(OC(F)(F)F)cc2c2c1O[C@]1(CC2)C[C@H]2C(=O)N[C@]3(C(=O)NS(=O)(=O)C4(C)CC4)C[C@H]3/C=C\CCCCC[C@H](NC(=O)OC(C)(C)CCS(C)(=O)=O)C(=O)N2C1` [Example 226, 2-methyl-4-(methylsulfonyl)butan-2-yl [(2R,6S,12Z,13aS,14aR,16aS)-5′-methyl-14a-{[(1-methylcyclopropyl)sulfonyl]carbamoyl}-5,16-dioxo-9′-(trifluoromethoxy)-1,1′,2′,5,6,7,8,9,10,11,13a,14,14a,15,16,16a-hexadecahydrospiro[cyclopropa[e]pyrrolo[1,2-a][1,4]diazacyclopentadecine-2,3′-pyrano[2,3-c]quinolin]-6-yl]carbamate]: in assay [1] (K+ salt), the IC50 turned out to be 0.021 nM. Moreover, the EC50 with HCV genotype 1b replicon (K+ salt) is 18 nM.

The values above are taken from patent US8987195B2 (priority 2012, dated 2015).
